Test results: patent publication US8658801B2, “Pesticides containing a bicyclic bisamide structure” (Syngenta Crop Protection, LLC, priority 2006, dated 2014)

Assays:
[1] = tested on: Aphis craccivora (Pea Aphid); assay: Example B11: activity against Aphis craccivora, mixed population, systemic/feeding; type: in vivo; settings: 144 h, 6 days, roots in test solution (systemic)
Text: Activity Against Aphis craccivora (Pea Aphid)
(Mixed Population, Systemic/Feeding)
6 days later, samples are checked for mortality.

[2] = tested on: Thrips tabaci (Onion Thrips); assay: Example B7: activity against Thrips tabaci, mixed population, feeding/residual contact, preventive; settings: 144 h, read-out: activity
[3] = tested on: Myzus persicae (Green Peach Aphid); assay: Example B5: activity against Myzus persicae, mixed population, feeding/residual contact, preventive (sunflower leaf discs); settings: foliar, 144 h, read-out: activity
[4] = tested on: Myzus persicae (Green Peach Aphid); assay: Example B6: activity against Myzus persicae, mixed population, systemic/feeding, curative (pea seedling roots); settings: 144 h, read-out: activity
[5] = tested on: Heliothis virescens (Tobacco Budworm); assay: Example B2: activity against Heliothis virescens, ovo-larvicide, feeding/contact, curative; type: in vivo; settings: 96 h, 4 days incubation, eggs 0-24 h old
Description: Activity Against Heliothis virescens (Tobacco Budworm)
(Ovo-Larvicide, Feeding/Contact Activity, Curative)
Eggs (0-24 h old) are placed in 24-well microtiter plate on artificial diet and treated with test solutions by pipetting. After an incubation period of 4 days, samples are checked for egg mortality, larval mortality, and growth regulation.

[6] = tested on: Plutella xylostella (Diamond Back Moth); assay: Example B3: Plutella xylostella, larvicide, feeding/residual contact, preventive (artificial diet MTP); type: in vivo; settings: 120 h, 5 days incubation, L2 larvae
Description: Plutella xylostella (Diamond Back Moth)
(§1) (Larvicide, Feeding/Residual Contact Activity, Preventive)
24-well microtiter plate (MTP) with artificial diet is treated with test solutions by pipetting. After drying, the MTP's are infested with larvae (L2)(10-15 per well). After an incubation period of 5 days, samples are checked for larval mortality, antifeedant and growth regulation. In this test, compounds listed in Table P above show good activity. In particular compounds P.1, P.2, P.3, P.4, P.5, P.6, P.7, P.9, P.10, P.11, P.12, P.13, P.15, P.16, P.17, P.18, P.19, P.20, P.21, P.22, P.23, P.25, P.26, P.27, P.28, P.29, P.30, P.31, P.32, P.33, P.34, P.35, P.36, P.37, P.38, P.39, P.40, P.41, P.42, P.43, P.44, P.46, P.47, P.48, P.49, P.50, P.51, P.52, P.53, P.54, P.55, P.56, P.57, P.58, P.59, P.60, P.61, P.63, P.64, P.67, P.68, P.69 P.70, P.72, P.74, P.77, P78 and P.79 show an activity of over 80% at a concentration of 400 ppm.

[7] = tested on: Frankliniella occidentalis (Western Flower Thrips); assay: Example B9: activity against Frankliniella occidentalis (bean leaf discs or bean plants); type: in vivo; settings: foliar, 6 days (leaf discs) or 14 days (plants) after infestation
Description: Activity Against Frankliniella occidentalis (Western Flower Thrips)
Bean leaf discs on agar in petri dishes or bean plants in a spray chamber are treated with diluted test solutions. After drying leaf discs are cut and placed in plastic cups on the surface of an agar layer and infested with mixed population. 6 days (leaf discs) or 14 days (plants) after the infestation, samples are checked for reduction of treated population and compared to the non treated population.

[8] = tested on: Spodoptera littoralis (Egyptian Cotton Leafworm); assay: Example B1: activity against Spodoptera littoralis, larvicide, feeding/residual contact, preventive (cotton leaf discs); type: in vivo; settings: foliar, 72 h, 3 days after treatment, L1 larvae
Text: Activity Against Spodoptera littoralis (Egyptian Cotton Leafworm)
as §1
The samples are checked for mortality, repellent effect, feeding behaviour, and growth regulation 3 days after treatment. In this test, compounds listed in Table P above show good activity. In particular compounds P.1, P.2, P.3, P.4, P.5, P.6, P.7, P.9, P.10, P.11, P.12, P.13, P.15, P.16, P.17, P.18, P.19, P.20, P.21, P.22, P.23, P.24, P.25, P.26, P.27, P.28, P.29, P.30, P.31, P.32, P.33, P.34, P.35, P.36, P.37, P.38, P.39, P.40, P.41, P.42, P.43, P.44, P.45, P.46, P.47, P.48, P.49, P.50, P.51, P.52, P.53, P.54, P.55, P.56, P.57, P.58, P.59, P.60, P.61, P.63, P.64, P.67, P.68 and P.70 show an activity of over 80% at a concentration of 400 ppm.

[9] = tested on: Diabrotica balteata (Corn Root Worm); assay: Example B4: Diabrotica balteata, larvicide, feeding/residual contact, preventive; type: in vivo; settings: 120 h, 5 days incubation, L2 larvae
Description: Diabrotica balteata (Corn Root Worm)
as §1
After drying, the MTP's are infested with larvae (L2)(6-10 per well). After an incubation period of 5 days, samples are checked for larval mortality, antifeedant and growth regulation. In this test, compounds listed in Table P above show good activity. In particular compounds P.1, P.2, P.5, P.6, P.10, P.11, P.12, P.13, P.15, P.16, P.17, P.18, P.19, P.24, P.25, P.27, P.28, P.29, P.30, P.31, P.33, P.34, P.35, P.37, P.38, P.39, P.42, P.43, P.44, P.45, P.46, P.47, P.48, P.49, P.50, P.52, P.53, P.65, P.67, P.68, P.69, P.70, P.71, P.72, P.75, P.78, and P.79 show an activity of over 80% at a concentration of 400 ppm.

Measured: pest or weed control at 400 ppm

COc1cc(C(=O)Nc2c(Br)cc3cn[nH]c3c2C(=O)NC(C)(C)CS(C)(=O)=O)n(-c2ncccc2Cl)n1 [P.54]
not listed: [9]
> 80%: all other assays above

O=C(NC1(C2CC2)CC1)c1c(NC(=O)c2cc(OCC(F)(F)F)nn2-c2ncccc2Cl)c(Cl)cc2cn[nH]c12 [P.48]
not listed: [1]
> 80%: all other assays above

CNC(=O)c1c(NC(=O)c2cc(C(F)(F)F)nn2-c2ncccc2Cl)c(C)cc2nc(C)ccc12 [P.22]
> 80%: [5] | [6] | [7] | [8]

COc1cc(C(=O)Nc2c(C#N)cc3cn[nH]c3c2C(=O)NC2(C3CC3)CC2)n(-c2ncccc2Cl)n1 [P.53]
not listed: [1] | [7]
> 80%: all other assays above

COc1cc(C(=O)Nc2c(C#N)cc3cn[nH]c3c2C(=O)NC(C)C)n(-c2ncccc2Cl)n1 [P.55]
not listed: [1] | [7] | [9]
> 80%: all other assays above

COc1cc(C(=O)Nc2c(Cl)cc3cn[nH]c3c2C(=O)NC(C)(C)CSC)n(-c2ncccc2Cl)n1 [P.57]
not listed: [1] | [7] | [9]
> 80%: all other assays above

COc1cc(C(=O)Nc2c(Br)cc3cn[nH]c3c2C(=O)NCC2CC2)n(-c2ncccc2Cl)n1 [P.36]
> 80%: [3] | [4] | [5] | [6] | [8]

CCNC(=O)c1c(NC(=O)c2cc(OC)nn2-c2ncccc2Cl)c(Cl)cc2cn[nH]c12 [P.58]
not listed: [1] | [7] | [9]
> 80%: all other assays above

CC(C)NC(=O)c1c(NC(=O)c2cc(C(F)(F)F)nn2-c2ncccc2Cl)c(C#N)cc2cn[nH]c12 [P.25]
not listed: [1] | [4] | [7]
> 80%: all other assays above

COc1cc(C(=O)Nc2c(Cl)cc3cn[nH]c3c2C(=O)NC2(C)CSC2)n(-c2ncccc2Cl)n1 [P.59, 5-chloro-6-{[2-(3-chloro-pyridin-2-yl)-5-methoxy-2H-pyrazole-3-carbonyl]-amino}-1H-indazole-7-carboxylic acid (3-methyl-thietan-3-yl)-amide]
not listed: [1] | [7] | [9]
> 80%: all other assays above

CC(C)(CS(C)(=O)=O)NC(=O)c1c(NC(=O)c2cc(C(F)(F)F)nn2-c2ncccc2Cl)c(Cl)cc2cn[nH]c12 [P.15]
not listed: [1] | [2]
> 80%: all other assays above

COc1cc(C(=O)Nc2c(Br)cc3cn[nH]c3c2C(=O)NC(C)(C)CSC)n(-c2ncccc2Cl)n1 [P.51]
not listed: [1] | [7] | [9]
> 80%: all other assays above

CCNC(=O)c1c(NC(=O)c2cc(OC)nn2-c2ncccc2Cl)c(Br)cc2cn[nH]c12 [P.50]
not listed: [1] | [7]
> 80%: all other assays above

Cc1cc2cn[nH]c2c(C(=O)NC(C)C)c1NC(=O)c1cc(Br)nn1-c1ncccc1Cl [P.65, 6-{[5-bromo-2-(3-chloro-pyridin-2-yl)-2H-pyrazole-3-carbonyl]-amino}-5-methyl-1H-indazole-7-carboxylic acid isopropylamide]
> 80%: [9] | [2] | [4]

CNC(=O)c1c(NC(=O)c2cc(C(F)(F)F)nn2-c2ncccc2Cl)c(Br)cc2cn[nH]c12 [P.17]
not listed: [1] | [2]
> 80%: all other assays above

Cc1cc2cn[nH]c2c(C(=O)NC2(C3CC3)CC2)c1NC(=O)c1cc(Br)nn1-c1ncccc1Cl [P.71, 6-{[5-bromo-2-(3-chloro-pyridin-2-yl)-2H-pyrazole-3-carbonyl]-amino}-5-methyl-1H-indazole-7-carboxylic acid bicyclopropyl-1-ylamide]
> 80%: [9] | [2] | [4] | [5]

Cc1cc2cn[nH]c2c(C(=O)NC2(C3CC3)CC2)c1NC(=O)c1cc(OCC(F)(F)F)nn1-c1ncccc1Cl [P.70, 6-{[2-(3-chloro-pyridin-2-yl)-5-(2,2,2-trifluoro-ethoxy)-2H-pyrazole-3-carbonyl]-amino}-5-methyl-1H-indazole-7-carboxylic acid bicyclopropyl-1-ylamide]
not listed: [1]
> 80%: all other assays above
